From patent US20260092061A1, “COMPOUNDS FOR TARGETED PROTEIN DEGRADATION” (Amphista Therapeutics Limited, priority 2022, published 2026)

What was measured:
BRD9 [1] = target: T1, BRD9 (Homo sapiens, UniProt Q9H8M2); test: BRD9 degradation, HiBiT-BRD9 KI HEK293 (LgBiT) cells, NanoGlo Lytic Endpoint assay (Assay Protocol 1); type: cell-based; settings: Assay protocol 1, BRD9 degradation; for DC50: read-out: DC50; for Dmax: HEK293, read-out: Dmax
T1 sequence (Q9H8M2 1-597): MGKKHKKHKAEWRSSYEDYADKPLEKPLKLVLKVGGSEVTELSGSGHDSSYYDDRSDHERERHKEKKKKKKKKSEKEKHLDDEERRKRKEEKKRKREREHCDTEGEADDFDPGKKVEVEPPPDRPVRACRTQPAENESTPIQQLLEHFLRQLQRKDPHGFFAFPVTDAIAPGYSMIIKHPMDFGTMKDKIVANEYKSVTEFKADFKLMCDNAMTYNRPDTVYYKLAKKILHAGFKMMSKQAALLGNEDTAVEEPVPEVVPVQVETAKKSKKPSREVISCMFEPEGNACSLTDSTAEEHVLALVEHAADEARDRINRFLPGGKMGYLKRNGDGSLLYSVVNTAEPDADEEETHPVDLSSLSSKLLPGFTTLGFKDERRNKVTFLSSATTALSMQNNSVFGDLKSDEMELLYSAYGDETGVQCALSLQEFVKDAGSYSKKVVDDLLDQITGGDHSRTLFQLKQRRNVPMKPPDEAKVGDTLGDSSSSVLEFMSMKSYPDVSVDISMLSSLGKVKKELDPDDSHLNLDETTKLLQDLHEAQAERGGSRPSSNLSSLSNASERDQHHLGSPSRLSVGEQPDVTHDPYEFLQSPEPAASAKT
Method in brief: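 HiBiT-tagged BRD9 knock-in HEK293 (LgBiT) cells exposed to compounds for 6 h at 37 °C, 5% CO2. Residual BRD9 measured by HiBiT lytic luminescence. % BRD9 remaining normalised to DMSO-treated cells (high) and no-cell wells (low).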

BRD9 [2] = target: T1, BRD9; test: Degradation of BRD9 (IF), immunofluorescence in MV4-11 cells, 24 hours (Assay Protocol 2); type: cell-based; design: A suspension of MV4-11 cells (ATCC CRL-9591) was prepared; host or cells: MV4-11; settings: BRD9 degradation; for DC50: Assay protocol 2, read-out: DC50; for Dmax: MV4-11, Assay protocol 2, read-out: Dmax
Method in brief: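 % BRD9 remaining, scaled between DMSO (high) and 100 nM CFT-8634 (low) control wells, derives from mean Alexa 647 contrast in central nuclei by high-content imaging. MV4-11 cells had 24 h compound exposure at 37° C. before PFA fixation, Triton permeabilisation and anti-BRD9 E4Q3F immunostaining.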

| DC50 (BRD9 [1]) [nM] | Dmax (BRD9 [1]) [%] | DC50 (BRD9 [2]) [nM] | Dmax (BRD9 [2]) [%] | Structure (SMILES) |
| --- | --- | --- | --- | --- |
| 1.25 to 10 | > 75 | 10 to 25 | > 75 | COc1cc(-c2cn(C)c(=O)c(C)c2C)cc(OC)c1CN1C[C@H](C)N(Cc2cccc3c2CCN(C(=O)/C(C#N)=C/C(C)(C)C)C3C)C[C@H]1C (mixture of isomers) [Compound B122, (E/Z)-2-(5-(((2S,5R)-4-(2,6-dimethoxy-4-(1,4,5-trimethyl-6-oxo-1,6-dihydropyridin-3-yl)benzyl)-2,5-dimethylpiperazin-1-yl)methyl)-1-methyl-1,2,3,4-tetrahydroisoquinoline-2-carbonyl)-4,4-dimethylpent-2-enenitrile] |
| 1.25 to 10 | > 75 | < 1.25 | > 75 | COc1cc(-c2cn(C)c(=O)c(C)c2C)cc(OC)c1CN1CCN(Cc2cccc3c2CCN(C(=O)/C(C#N)=C/C2(C)CCOCC2)C3C)C2(CC2)C1 (mixture of isomers) [Compound B123, (E/Z)-2-(5-((7-(2,6-dimethoxy-4-(1,4,5-trimethyl-6-oxo-1,6-dihydropyridin-3-yl)benzyl)-4,7-diazaspiro[2.5]octan-4-yl)methyl)-1-methyl-1,2,3,4-tetrahydroisoquinoline-2-carbonyl)-3-(4-methyltetrahydro-2H-pyran-4-yl)acrylonitrile] |
| < 1.25 | > 75 | < 1.25 | > 75 | COCC1(/C=C(\C#N)C(=O)N2CCc3c(CN4CCN(Cc5c(OC)cc(-c6cn(C)c(=O)c(C)c6C)cc5OC)CC45CC5)cccc3C2C)CC1 (mixture of isomers) [Compound B124, (E/Z)-2-(5-((7-(2,6-dimethoxy-4-(1,4,5-trimethyl-6-oxo-1,6-dihydropyridin-3-yl)benzyl)-4,7-diazaspiro[2.5]octan-4-yl)methyl)-1-methyl-1,2,3,4-tetrahydroisoquinoline-2-carbonyl)-3-(1-(methoxymethyl)cyclopropyl)acrylonitrile] |
| < 1.25 | > 75 | < 1.25 | > 75 | COc1cc(-c2cn(C)c(=O)c(C)c2C)cc(OC)c1CN1CCN(Cc2cccc3c2CCN(C(=O)/C(C#N)=C\C(C)(C)CF)C3C)C2(CC2)C1 (mixture of isomers) [Compound B125, (E/Z)-2-(5-((7-(2,6-dimethoxy-4-(1,4,5-trimethyl-6-oxo-1,6-dihydropyridin-3-yl)benzyl)-4,7-diazaspiro[2.5]octan-4-yl)methyl)-1-methyl-1,2,3,4-tetrahydroisoquinoline-2-carbonyl)-5-fluoro-4,4-dimethylpent-2-enenitrile] |
| 1.25 to 10 | > 75 | 1.25 to 10 | 70 to 75 | COc1cc(-c2cn(C)c(=O)c(C)c2C)cc(OC)c1CN1CCN(Cc2cccc3c2CCN(C(=O)/C(C#N)=C/C(C)(C)N2CCN(C4COC4)CC2)C3C)C2(CC2)C1 (mixture of isomers) [Compound B126, (E/Z)-2-(5-((7-(2,6-dimethoxy-4-(1,4,5-trimethyl-6-oxo-1,6-dihydropyridin-3-yl)benzyl)-4,7-diazaspiro[2.5]octan-4-yl)methyl)-1-methyl-1,2,3,4-tetrahydroisoquinoline-2-carbonyl)-4-methyl-4-(4-(oxetan-3-yl)piperazin-1-yl)pent-2-enenitrile] |
| 1.25 to 10 | > 75 | 1.25 to 10 | > 75 | COc1cc(-c2cn(C)c(=O)c(C)c2C)ccc1OC1CCN(Cc2cccc3c2CCN(C(=O)/C(C#N)=C/C(C)(C)C)C3C)CC1 (mixture of isomers) [Compound B127, (E/Z)-2-(5-((4-(2-methoxy-4-(1,4,5-trimethyl-6-oxo-1,6-dihydropyridin-3-yl)phenoxy)piperidin-1-yl)methyl)-1-methyl-1,2,3,4-tetrahydroisoquinoline-2-carbonyl)-4,4-dimethylpent-2-enenitrile] |

Further lines, the compound ahead of its results:

| Structure (SMILES) | DC50 (BRD9 [1]) [nM] | Dmax (BRD9 [1]) [%] | DC50 (BRD9 [2]) [nM] | Dmax (BRD9 [2]) [%] |
| --- | --- | --- | --- | --- |
| COc1cc(-c2cn(C)c(=O)c(C)c2C)cc(OC)c1CN1CCN(C(=O)c2ccc(C3CCCN3C(=O)/C(C#N)=C/C(C)(C)C)cc2)CC1 (mixture of isomers) [Compound B55, (E/Z)-2-(2-(4-(4-(2,6-dimethoxy-4-(1,4,5-trimethyl-6-oxo-1,6-dihydropyridin-3-yl)benzyl)piperazine-1-carbonyl)phenyl)pyrrolidine-1-carbonyl)-4,4-dimethylpent-2-enenitrile] | 10 to 25 | > 75 | 25 to 1000 | > 75 |
| COc1cc(-c2cn(C)c(=O)c(C)c2C)cc(OC)c1CN1CC(Oc2ccc3c(c2)CCN(C(=O)/C(C#N)=C/c2cccc(Br)n2)C3C)C1 (mixture of isomers) [Compound B57, (E/Z)-3-(6-bromopyridin-2-yl)-2-(6-((1-(2,6-dimethoxy-4-(1,4,5-trimethyl-6-oxo-1,6-dihydropyridin-3-yl)benzyl)azetidin-3-yl)oxy)-1-methyl-1,2,3,4-tetrahydroisoquinoline-2-carbonyl)acrylonitrile] | < 1.25 | 40 to 70 | < 1.25 | 40 to 70 |
| COc1cc(-c2cn(C)c(=O)c(C)c2C)cc(OC)c1CN1CC2(C1)CN(c1cccc(C3CCCN3C(=O)/C(C#N)=C/C(C)(C)C)c1)C2 (mixture of isomers) [Compound B58, (E/Z)-2-(2-(3-(6-(2,6-dimethoxy-4-(1,4,5-trimethyl-6-oxo-1,6-dihydropyridin-3-yl)benzyl)-2,6-diazaspiro[3.3]heptan-2-yl)phenyl)pyrrolidine-1-carbonyl)-4,4-dimethylpent-2-enenitrile] | < 1.25 | 40 to 70 | < 1.25 | 40 to 70 |
| COc1cc(-c2cn(C)c(=O)c3ccsc23)cc(OC)c1CN1CCN(Cc2cccc3c2CCN(C(=O)/C(C#N)=C/C(C)(C)C)C3C)CC1 (mixture of isomers) [Compound B59, (E/Z)-2-(5-((4-(2,6-dimethoxy-4-(5-methyl-4-oxo-4,5-dihydrothieno[3,2-c]pyridin-7-yl)benzyl)piperazin-1-yl)methyl)-1-methyl-1,2,3,4-tetrahydroisoquinoline-2-carbonyl)-4,4-dimethypent-2-enenitrile] |  | 40 to 70 |  | 40 to 70 |
| COc1cc(-c2cn(C)c(=O)c(C)c2C)cc(OC)c1CN(C)Cc1cccc(C2CCCN2C(=O)/C(C#N)=C/C(C)(C)C)c1 (mixture of isomers) [Compound B78, (E/Z)-2-(2-(3-(((2,6-dimethoxy-4-(1,4,5-trimethyl-6-oxo-1,6-dihydropyridin-3-ylbenzyl)methyl)amino)methyl)phenyl)pyrrolidine-1-carbonyl)-4,4-dimethylpent-2-enenitrile] | 1.25 to 10 | > 75 | 10 to 25 | > 75 |
| COc1cc(-c2cn(C)c(=O)c(C)c2C)cc(OC)c1CN1CCN(Cc2cccc3c2CCN(C(=O)/C(C#N)=C/C2CCOC2)C3C)CC1 (mixture of isomers) [Compound B94, (E/Z)-2-(5-((4-(2,6-dimethoxy-4-(1,4,5-trimethyl-6-oxo-1,6-dihydropyridin-3-yl)benzyl)piperazin-1-yl)methyl)-1-methyl-1,2,3,4-tetrahydroisoquinoline-2-carbonyl)-3-(tetrahydrofuran-3-yl)acrylonitrile] | 1.25 to 10 | > 75 | 1.25 to 10 | 40 to 70 |
| COc1cc(-c2cn(C)c(=O)c(C)c2C)cc(OC)c1CN1CCN(Cc2cccc3c2CCN(C(=O)/C(C#N)=C/C2CC(F)(F)C2)C3C)C2(CC2)C1 (mixture of isomers) [Compound B116] | 1.25 to 10 | > 75 | < 1.25 | > 75 |
